In ChEMBL document CHEMBL5120877, “Silybins are stereospecific regulators of the 20S proteasome” (Bioorg Med Chem, 2022):
Activity calls are given as the source filed them. No cut-off for these calls is given here.

Assays:
Settings in all cases: filed as activator, time 90.0 min
Saccharomyces cerevisiae [1] = assay: Activation of chymotrypsin-like activity of yeast 20s proteasome using suc-LLVY-AMC as flurogenic substrate preincubated for 30 mins followed by substrate addition and measured after 1 hr by fluorescence assay
Saccharomyces cerevisiae [2] = assay: Activation of PGPHL-peptidase activity of yeast 20s proteasome using […] as flurogenic substrate preincubated for 30 mins followed by substrate addition and measured after 1 hr by fluorescence assay
Saccharomyces cerevisiae [3] = assay: Activation of trypsin-like activity of yeast 20s proteasome using […] as flurogenic substrate preincubated for 30 mins followed by substrate addition and measured after 1 hr by fluorescence assay

Activity (Saccharomyces cerevisiae [1]) | Activity (Saccharomyces cerevisiae [2]) | Activity (Saccharomyces cerevisiae [3]) | Compound
Active | Active | Active | COc1cc([C@@H]2Oc3cc([C@H]4Oc5cc(O)cc(O)c5C(=O)[C@@H]4O)ccc3O[C@H]2CO)ccc1O
Active | Active | Active | COc1cc([C@H]2Oc3cc([C@H]4Oc5cc(O)cc(O)c5C(=O)[C@@H]4O)ccc3O[C@@H]2CO)ccc1O
